According to patent US20230227398A1, “MESCALINE DERIVATIVES WITH MODIFIED ACTION” (Mind Medicine, Inc., priority 2021, published 2023):
“Also recorded” adds a separate entry of the source.

What was measured:
[1] = Duration of action and potency of mescaline derivatives; parameters: species or system humans; details: in vivo
Description: Together, the in vitro profiles of mescaline and its derivatives represented in FIG. 1 compared with that of psilocin and LSD indicate overall psychedelic properties of all compounds but also differences that likely manifest when used in humans. Accordingly, some mescaline derivatives will exert psychedelic acute effect profiles that are more beneficial to some patients including but not limited to: more overall positive effects, more or less perceptual effects, more emotional effects, less anxiety, less cardio-stimulant effects, less adverse effects, less nausea, longer and also shorter effects among other properties and compared to mescaline. Specifically, taken together the pharmacological data and structural specifics on the substances tested herein some compounds are of particular interest. FE and FP have a relatively short duration of action (<6 hours) compared with mescaline and potentially empathogenic MDMA-like effects.
The compounds represented by FIG. 1 act with shorter, with similar or with longer duration of action in human in comparison to the original mescaline molecule. This is triggered by modification of the molecular structure in FIG. 1.

5-HT2A receptor = 5-HT2A receptor (Homo sapiens, UniProt P28223); details: cited from earlier work
D2 receptors = D2 receptors (Homo sapiens, UniProt P14416); details: cited from earlier work
5-HT transporter (SERT) = 5-HT transporter (SERT) (Homo sapiens, UniProt P31645); details: cited from earlier work
monoamine transporters = assay: Inhibition of monoamine transport (in vitro profiling); format: biochemical
Description: Activity of compounds at monoamine transporters are thought to mediate MDMA-like empathogenic effects (Hysek et al., 2012). Importantly, mescaline is a very weak 5-HT2A receptor ligand and high doses are needed to induce psychoactive effects in humans. However, despite its low potency, mescaline can have extraordinarily strong psychedelic effects in humans at high doses and the same is likely the case for the substances developed within the present invention although 10-20-fold higher potency is also possible in some compounds, to be evaluated in detail clinically. Key results of pharmacological profiling of the compounds described herein were: […]

[2] = humans, cited from earlier work
[3] = target: T1, serotonin 5-HT2A receptor (Homo sapiens, UniProt P28223); details: background art; cited from earlier work
5-HT1A receptor = target: T2, 5-HT1A receptor (Homo sapiens, UniProt P08908); details: background art; cited from earlier work
T2 sequence (P08908 1-422): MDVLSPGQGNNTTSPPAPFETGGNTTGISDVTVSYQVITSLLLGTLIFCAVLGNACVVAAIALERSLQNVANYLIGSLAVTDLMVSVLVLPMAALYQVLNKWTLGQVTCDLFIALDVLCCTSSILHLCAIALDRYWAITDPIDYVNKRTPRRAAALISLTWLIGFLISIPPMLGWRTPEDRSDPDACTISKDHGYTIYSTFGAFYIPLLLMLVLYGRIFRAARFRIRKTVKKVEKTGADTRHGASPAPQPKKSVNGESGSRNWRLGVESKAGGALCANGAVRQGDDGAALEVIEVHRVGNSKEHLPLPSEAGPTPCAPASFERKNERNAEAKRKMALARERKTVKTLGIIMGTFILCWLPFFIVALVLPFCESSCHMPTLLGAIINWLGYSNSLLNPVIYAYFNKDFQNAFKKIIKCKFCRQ

α2A receptors = target: T3, α2A receptors (Homo sapiens, UniProt P08913); details: background art; cited from earlier work
T3 sequence (P08913 1-465): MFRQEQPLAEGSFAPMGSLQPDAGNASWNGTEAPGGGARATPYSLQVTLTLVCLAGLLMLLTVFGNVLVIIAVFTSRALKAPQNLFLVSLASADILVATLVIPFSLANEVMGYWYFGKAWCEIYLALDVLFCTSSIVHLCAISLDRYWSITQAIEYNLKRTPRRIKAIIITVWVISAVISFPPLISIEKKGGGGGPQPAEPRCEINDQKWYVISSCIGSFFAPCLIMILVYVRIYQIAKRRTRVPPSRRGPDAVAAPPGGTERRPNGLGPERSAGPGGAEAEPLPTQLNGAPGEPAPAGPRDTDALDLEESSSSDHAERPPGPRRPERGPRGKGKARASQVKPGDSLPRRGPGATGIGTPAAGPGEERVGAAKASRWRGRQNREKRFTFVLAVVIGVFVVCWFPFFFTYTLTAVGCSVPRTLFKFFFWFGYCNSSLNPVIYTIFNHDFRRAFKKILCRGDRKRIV

[4] = humans (Charalampous, 1966); cited from earlier work
dopaminergic receptors = assay: Binding to dopaminergic receptors (in vitro profiling); details: in contrast to LSD
[5] = target: T1, serotonin 5-HT2A receptor; assay: 5-HT2A receptor binding (in vitro profiling at key targets)

Sequence of 5-HT2A receptor (P28223 whole entry): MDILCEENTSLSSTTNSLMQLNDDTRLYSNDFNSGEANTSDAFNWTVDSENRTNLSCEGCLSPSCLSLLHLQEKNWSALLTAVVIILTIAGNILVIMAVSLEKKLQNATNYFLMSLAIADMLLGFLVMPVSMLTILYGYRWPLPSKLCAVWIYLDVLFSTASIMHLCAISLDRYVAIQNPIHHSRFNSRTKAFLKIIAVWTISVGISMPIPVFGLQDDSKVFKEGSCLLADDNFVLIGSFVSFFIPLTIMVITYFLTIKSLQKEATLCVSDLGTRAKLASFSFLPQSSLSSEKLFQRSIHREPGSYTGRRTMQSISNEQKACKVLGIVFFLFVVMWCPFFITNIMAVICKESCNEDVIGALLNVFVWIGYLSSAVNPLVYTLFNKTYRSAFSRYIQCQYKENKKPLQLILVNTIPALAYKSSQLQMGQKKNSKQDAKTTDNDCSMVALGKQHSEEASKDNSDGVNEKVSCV
Sequence of 5-HT transporter (SERT) (P31645 whole entry): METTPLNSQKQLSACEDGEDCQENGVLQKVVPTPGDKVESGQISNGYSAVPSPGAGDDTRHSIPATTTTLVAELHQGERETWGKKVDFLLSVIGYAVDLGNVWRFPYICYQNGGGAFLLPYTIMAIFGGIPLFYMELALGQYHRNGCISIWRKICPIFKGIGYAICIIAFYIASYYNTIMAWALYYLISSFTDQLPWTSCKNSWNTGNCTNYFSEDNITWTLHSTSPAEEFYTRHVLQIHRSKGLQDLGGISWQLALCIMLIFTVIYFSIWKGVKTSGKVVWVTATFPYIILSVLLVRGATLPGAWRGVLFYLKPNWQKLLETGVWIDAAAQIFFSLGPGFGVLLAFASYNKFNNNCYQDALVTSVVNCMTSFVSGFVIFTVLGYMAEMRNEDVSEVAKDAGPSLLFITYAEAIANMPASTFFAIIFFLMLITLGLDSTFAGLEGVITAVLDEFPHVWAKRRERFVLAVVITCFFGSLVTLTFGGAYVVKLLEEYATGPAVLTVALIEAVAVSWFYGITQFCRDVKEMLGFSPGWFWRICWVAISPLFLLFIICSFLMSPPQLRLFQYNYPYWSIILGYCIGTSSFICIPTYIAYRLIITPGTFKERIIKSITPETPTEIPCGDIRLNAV
Sequence of D2 receptors (P14416 whole entry): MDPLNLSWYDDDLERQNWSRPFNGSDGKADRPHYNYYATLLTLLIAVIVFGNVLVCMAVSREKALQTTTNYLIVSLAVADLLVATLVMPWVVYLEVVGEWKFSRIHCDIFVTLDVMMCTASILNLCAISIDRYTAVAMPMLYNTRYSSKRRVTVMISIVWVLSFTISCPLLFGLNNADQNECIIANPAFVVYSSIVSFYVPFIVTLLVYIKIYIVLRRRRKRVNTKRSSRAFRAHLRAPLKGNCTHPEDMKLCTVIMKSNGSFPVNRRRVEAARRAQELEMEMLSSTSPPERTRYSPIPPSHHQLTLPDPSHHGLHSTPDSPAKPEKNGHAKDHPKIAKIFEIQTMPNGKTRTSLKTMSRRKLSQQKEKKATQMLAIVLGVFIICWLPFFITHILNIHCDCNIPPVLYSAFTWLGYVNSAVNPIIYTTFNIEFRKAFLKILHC
T1 sequence (P28223 whole entry): as the sequence (P28223 whole entry) above

## COc1cc(CCN)cc(OC)c1OC(F)F.Cl [DFM, 4-Difluoromethoxy-3,5-dimethoxyphenethylamine hydrochloride]
[1]
  potency (in words): relatively potent

## CN(C)CCc1c[nH]c2ccccc12 [DMT, N,N-dimethyltryptamine]
5-HT2A receptor
  agonism / stimulation of the 5-HT2A receptor (in words): agonists

## CCN(CC)C(=O)[C@@H]1C=C2c3cccc4[nH]cc(c34)C[C@H]2N(C)C1 [LSD, lysergic acid diethylamide]
D2 receptors
  affinity / activity at D2 receptors (in words): has activity
5-HT2A receptor
  agonism / stimulation of the 5-HT2A receptor (in words): agonists; also recorded: potently stimulates

## CN(C)CCc1c[nH]c2cccc(O)c12 [Psilocin]
5-HT transporter (SERT)
  interaction with / inhibition of SERT (in words): inhibits
5-HT2A receptor
  agonism / stimulation of the 5-HT2A receptor (in words): stimulates

## COc1cc(CCN)cc(OC)c1OCC(F)(F)F.Cl [TFE, 3,5-Dimethoxy-4-(2,2,2-trifluoroethoxy)phenethylamine hydrochloride]
[1]
  potency (in words): relatively potent

## COc1cc(CCN)cc(OC)c1OC [mescaline]
Monoamine transporters
  inhibition of monoamine transport (in words): did not inhibit monoamine transport
[2]; dose-dependently
  subjective effects last (duration): 10 to 16 h
[2]; psychoactive doses
  subjective effects appear (onset): ≤ 30 min
  subjective effects peak: 4 h
[2]
  doses needed to induce a full psychedelic experience: 200 to 800 mg
[3]
  binding to 5-HT2A receptor (in words): rather low concentration range
5-HT transporter (SERT)
  interaction with / inhibition of SERT (in words): do not interact
D2 receptors
  affinity / activity at D2 receptors (in words): no affinity
5-HT2A receptor
  agonism / stimulation of the 5-HT2A receptor (in words): agonists
5-HT1A receptor
  binding to 5-HT1A receptor (in words): rather low concentration range
α2A receptors
  binding to α2A receptors (in words): rather low concentration range
[4]
  eliminated in urine unchanged, fraction of the dose ingested: up to two thirds
  plasma half-life: approximately 6 hours
Dopaminergic receptors
  binding to dopaminergic receptors (in words): did not relevantly bind
[5]
  5-HT2A receptor binding affinity / binding potency (in words): very weak
